The text below walks through data of patent US20050148607A1, “Preventives and/or remedies for subjects with the expression or activation of her2 and/or egfr” (priority 2002, published 2005).

Assay [1] deals with EGFR overexpression cancer A431. The conditions noted are these: EGFR overexpression cancer A431, literature; cited from earlier work.
Assay [2] concerns human rectal cancer LS174T (EGFR negative, Her2 positive). Kind of assay: In vivo antitumor effects, LS174T xenograft in nude mice. The settings on record: Balb/c nude mice, final day. On the procedure: (§1) Cultured human cancer cells suspended in PBS were implanted subcutaneously in the back of female Balb/c nude mice (Balb/cAJcl-nu mouse, CLEA Japan Inc., 5-week-old when received) at 5×10^6/100 μl. When about 7 days later and the average volume of the implanted tumors almost reached 100 mm^3, the mice were allotted by 4 mice per group such that the average tumor volume of each group became equal.
(§2) For the tumor volume, the longer diameter and the shorter diameter were measured with calipers and calculated as [(shorter diameter)^2×(longer diameter/2)]=tumor volume [mm^3]. A pharmaceutical agent was administered by oral gavage once a day for 14 consecutively days from the day of allottment, and the pharmaceutical agent was not administered to the mice of the control group. The relative tumor growth rate was calculated based on the tumor volume on the administration start day for the pharmaceutical agent treatment group against the control group as rate 1. The antitumor effects are shown in % control. The % control was calculated by the following formula. % control=[(average relative tumor growth rate of pharmaceutical agent treatment group on the final day-1)/(average relative tumor growth rate of control group on the final day-1)]×100

Assay [3] concerns human pancreatic cancer HPAC (both EGFR, Her2 positive). Kind of assay: In vivo antitumor effects, HPAC xenograft in nude mice. The settings on record: Balb/c nude mice, final day. On the procedure: as §1, §2
The subject of assay [4] is erbB3. The settings on record: MDA-MB-453 cells stimulated with Heregulin, literature; cited from earlier work.
Assay [5] concerns human lung cancer NCI-H520 (both EGFR, Her2 negative). Description: In vivo antitumor effects, NCI-H520 xenograft in nude mice. The settings on record: Balb/c nude mice, final day. On the procedure: as §1, §2
The test system of assay [6] is human cervical cancer ME180 (EGFR positive, Her2 negative). Kind of assay: In vivo antitumor effects, ME180 xenograft in nude mice. The settings on record: Balb/c nude mice, final day. On the procedure:
as §1, §2

Where [7] appears, read: 10 mg/kg oral once a day for 14 days.
[8] abbreviates: 30 mg/kg oral once a day for 14 days.

Consider `C=CC(=O)Nc1cc2c(Nc3ccc(F)c(Cl)c3)ncnc2cc1OCCCN1CCOCC1` [PD, N-[4-(3-chloro-4-fluorophenyl)amino-7-[3-(4-morpholinyl)propoxy]quinazolin-6-yl]acrylamide], for which, in assay [1], the “in vivo antitumor effect” value was “shows an in vivo antitumor effect”. The “% control” value in assay [2] (setting [7]) amounted to 56 % control; in assay [2] (setting [8]), 34 % control; in assay [3] (setting [7]), 39 % control; in assay [3] (setting [8]), 11 % control.

For `C=CC(=O)Nc1cc2c(Nc3ccc(F)c(Cl)c3)ncnc2cc1OCCCN1CCOCC1` [PD.2HCl], the “inhibition of tyrosine phosphorylation of erbB3” value in assay [4] is “inhibit tyrosine phosphorylation”. In addition, the “% control” value in assay [5] (setting [7]) is recorded as 95 % control; in assay [5] (setting [8]) it was 87 % control; in assay [6] (setting [7]) it was 25 % control; in assay [6] (setting [8]), 17 % control.
